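Growth conditions: 96-well plates. Treatment: test compound, 48 hours, 5 concentrations. Analysis: linear interpolation between bracketing concentrations; unreached endpoints set to highest concentration. Abbreviation: GI50, concentration required for 50% inhibition of growth.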 Activity calls are given as the source filed them. Rule as the data show it: active = GI50 up to about 1.1 µM and inactive = higher.
What was measured:
Assay in all cases: inhibition of tumour cell growth, NCI panel, 48 h
UO-31 = system: UO-31
A498 = system: A498
OVCAR-8 = system: OVCAR-8
SW-620 = system: SW-620
NCI-H23 = system: NCI-H23
SF-539 = system: SF-539
HOP-62 = system: HOP-62
SK-OV-3 = system: SK-OV-3
CCRF-CEM = system: CCRF-CEM
KM12 = system: KM12
SNB-19 = system: SNB-19
SNB-75 = system: SNB-75
OVCAR-5 = system: OVCAR-5
HT-29 = system: HT-29
OVCAR-3 = system: OVCAR-3
HCT-15 = system: HCT-15
SK-MEL-28 = system: SK-MEL-28
SN12C = system: SN12C
DMS-273 = system: DMS-273
786-0 = system: 786-0

Compound	GI50 (UO-31)	GI50 (A498)	GI50 (OVCAR-8)	GI50 (SW-620)	GI50 (NCI-H23)	GI50 (SF-539)	GI50 (HOP-62)	GI50 (SK-OV-3)	GI50 (CCRF-CEM)	GI50 (KM12)	GI50 (SNB-19)	GI50 (SNB-75)	GI50 (OVCAR-5)	GI50 (HT-29)	GI50 (OVCAR-3)	GI50 (HCT-15)	GI50 (SK-MEL-28)	GI50 (SN12C)	GI50 (DMS-273)	GI50 (786-0)
CN(CCO)Cc1ncccc1O	> 100 µM (inactive)	> 100 µM (inactive)	> 100 µM (inactive)	> 100 µM (inactive)	> 100 µM (inactive)	> 100 µM (inactive)	> 100 µM (inactive)	> 100 µM (inactive)	68.5 µM (inactive)	> 100 µM (inactive)	> 100 µM (inactive)	> 100 µM (inactive)	> 100 µM (inactive)	> 100 µM (inactive)	> 100 µM (inactive)	> 100 µM	> 100 µM (inactive)	–	–	–
CON(C)C(C#N)=C(C#N)C#N	> 10 µM (inactive)	> 10 µM (inactive)	> 10 µM (inactive)	> 10 µM (inactive)	> 10 µM (inactive)	> 10 µM (inactive)	> 10 µM (inactive)	> 10 µM (inactive)	> 10 µM (inactive)	> 10 µM (inactive)	> 10 µM (inactive)	> 10 µM (inactive)	> 10 µM (inactive)	> 10 µM (inactive)	> 10 µM (inactive)	> 10 µM	> 10 µM (inactive)	> 10 µM (inactive)	–	–
O=C1c2ccccc2N(O)C1(c1ccccc1)C1CCCC=C1N1CCOCC1 (stereo not drawn)	22.5 µM (inactive)	–	> 100 µM (inactive)	> 100 µM (inactive)	> 100 µM (inactive)	80.9 µM (inactive)	> 100 µM (inactive)	> 100 µM (inactive)	40.7 µM (inactive)	–	57.9 µM (inactive)	18.4 µM (inactive)	> 100 µM (inactive)	> 100 µM (inactive)	> 100 µM (inactive)	91.2 µM	83.8 µM (inactive)	> 100 µM (inactive)	> 100 µM (inactive)	–
O=C(Nn1c(-c2ccccc2)nc2ccccc2c1=O)c1ccc(CS)cc1	46.3 µM (inactive)	24.5 µM (inactive)	57.1 µM (inactive)	31.1 µM (inactive)	49.9 µM (inactive)	24.5 µM (inactive)	> 100 µM (inactive)	82.8 µM (inactive)	5.89 µM (inactive)	81.1 µM (inactive)	> 100 µM (inactive)	39.7 µM (inactive)	> 100 µM (inactive)	53 µM (inactive)	67.6 µM (inactive)	–	69.8 µM (inactive)	36.6 µM (inactive)	–	24.4 µM (inactive)
O=c1nc(NC(c2ccccc2)(c2ccccc2)c2ccccc2)ccn1CCCl	47.6 µM (inactive)	64.7 µM (inactive)	16.2 µM (inactive)	24.1 µM (inactive)	23.2 µM (inactive)	17.8 µM (inactive)	21.5 µM (inactive)	–	–	17.1 µM (inactive)	15.1 µM (inactive)	17.6 µM (inactive)	27.5 µM (inactive)	17 µM (inactive)	13.2 µM (inactive)	35.4 µM	15 µM (inactive)	17.9 µM (inactive)	–	18.1 µM (inactive)
COc1cccc(OCC(=N/NC(=O)c2ccncc2)/N=C/c2ccncc2)c1	–	> 100 µM (inactive)	> 100 µM (inactive)	> 100 µM (inactive)	> 100 µM (inactive)	> 100 µM (inactive)	> 100 µM (inactive)	> 100 µM (inactive)	> 100 µM (inactive)	> 100 µM (inactive)	> 100 µM (inactive)	–	> 100 µM (inactive)	> 100 µM (inactive)	> 100 µM (inactive)	> 100 µM	> 100 µM (inactive)	> 100 µM (inactive)	–	> 100 µM (inactive)
CC(=O)NNc1nc(C)c(C(=O)NNC(=O)C(=O)Nc2ccc([N+](=O)[O-])cc2C#N)s1	> 100 µM (inactive)	58.1 µM (inactive)	> 100 µM (inactive)	55.1 µM (inactive)	96.4 µM (inactive)	> 100 µM (inactive)	> 100 µM (inactive)	> 100 µM (inactive)	32.7 µM (inactive)	> 100 µM (inactive)	> 100 µM (inactive)	–	> 100 µM (inactive)	> 100 µM (inactive)	63.5 µM (inactive)	> 100 µM	> 100 µM (inactive)	> 100 µM (inactive)	> 100 µM (inactive)	67.3 µM (inactive)
CC1=CC(C)C(C)N(CC2=NCCN2)c2ccccc21 (stereo not drawn)	47.3 µM (inactive)	> 59.8 µM (inactive)	> 80.9 µM (inactive)	> 100 µM (inactive)	> 100 µM (inactive)	62.1 µM (inactive)	> 100 µM (inactive)	96.8 µM (inactive)	45.6 µM (inactive)	> 68.4 µM (inactive)	> 100 µM (inactive)	46 µM (inactive)	> 57.7 µM (inactive)	18.7 µM (inactive)	56.8 µM (inactive)	> 100 µM	18.7 µM (inactive)	> 100 µM (inactive)	–	83.2 µM (inactive)
Cn1cc(-c2csc(-c3cn(C)c4ccccc34)n2)c2ccccc21	> 100 µM (inactive)	12.6 µM (inactive)	25.6 µM (inactive)	59.4 µM (inactive)	84.5 µM (inactive)	–	17.6 µM (inactive)	–	> 100 µM (inactive)	43.3 µM (inactive)	42.7 µM (inactive)	–	95.9 µM (inactive)	> 100 µM (inactive)	23.5 µM (inactive)	> 100 µM	61.5 µM (inactive)	47.8 µM (inactive)	–	17.2 µM (inactive)
Cn1c2ccc([N+](=O)[O-])cc2c(=O)n1Cc1ccccc1F	37.9 µM (inactive)	37.2 µM (inactive)	28.6 µM (inactive)	> 100 µM (inactive)	48 µM (inactive)	25.2 µM (inactive)	57 µM (inactive)	> 100 µM (inactive)	46.6 µM (inactive)	35.3 µM (inactive)	33.5 µM (inactive)	20.9 µM (inactive)	46.3 µM (inactive)	54.7 µM (inactive)	40.8 µM (inactive)	40.5 µM	47.5 µM (inactive)	> 100 µM (inactive)	–	49.5 µM (inactive)
CC1CC/C(=C\c2ccc(N(C)C)cc2)C2=C1C(c1ccc(N(C)C)cc1)NC(=S)N2 (stereo not drawn)	> 100 µM (inactive)	> 100 µM (inactive)	> 100 µM (inactive)	> 100 µM (inactive)	> 100 µM (inactive)	> 100 µM (inactive)	–	> 100 µM (inactive)	> 100 µM (inactive)	> 100 µM (inactive)	> 100 µM (inactive)	> 100 µM (inactive)	> 100 µM (inactive)	> 100 µM (inactive)	> 100 µM (inactive)	> 100 µM	> 100 µM (inactive)	> 100 µM (inactive)	–	> 100 µM (inactive)
CN(C)C(=O)NCCN1CCCCCc2ccccc21	> 100 µM (inactive)	> 100 µM (inactive)	> 100 µM (inactive)	> 100 µM (inactive)	76.4 µM (inactive)	> 100 µM (inactive)	> 100 µM (inactive)	> 100 µM (inactive)	71.8 µM (inactive)	> 100 µM (inactive)	> 100 µM (inactive)	–	> 100 µM (inactive)	> 100 µM (inactive)	37 µM (inactive)	> 100 µM	> 100 µM (inactive)	> 100 µM (inactive)	–	–
CCN(CC)c1cccc2c1/C(=N/O)CCCC2	> 100 µM (inactive)	–	> 100 µM (inactive)	> 100 µM (inactive)	> 100 µM (inactive)	–	> 100 µM (inactive)	> 100 µM (inactive)	> 100 µM (inactive)	> 100 µM (inactive)	> 100 µM (inactive)	84.1 µM (inactive)	–	97.1 µM (inactive)	–	> 100 µM	> 100 µM (inactive)	> 100 µM (inactive)	> 100 µM (inactive)	> 100 µM (inactive)
CC[C@H](O)[C@H](C)C=C1SCCCS1	61.8 µM (inactive)	> 100 µM (inactive)	> 100 µM (inactive)	> 100 µM (inactive)	> 100 µM (inactive)	–	> 100 µM (inactive)	> 100 µM (inactive)	> 100 µM (inactive)	> 100 µM (inactive)	–	> 100 µM (inactive)	> 100 µM (inactive)	> 100 µM (inactive)	> 100 µM (inactive)	> 100 µM	> 100 µM (inactive)	> 100 µM (inactive)	–	> 100 µM (inactive)
CCOC(=O)c1cc(Br)c(-c2cc(C)no2)[nH]1	29.1 µM (inactive)	20.2 µM (inactive)	35.8 µM (inactive)	30 µM (inactive)	24.4 µM (inactive)	33.8 µM (inactive)	–	41.6 µM (inactive)	–	10.1 µM (inactive)	80.4 µM (inactive)	23.9 µM (inactive)	49 µM (inactive)	41.6 µM (inactive)	21.3 µM (inactive)	25 µM	32.4 µM (inactive)	32 µM (inactive)	–	43.7 µM (inactive)
O=C1C(Cl)N(c2ccccc2[N+](=O)[O-])C1c1c[nH]c2ccccc12 (stereo not drawn)	54.6 µM (inactive)	–	> 100 µM (inactive)	> 100 µM (inactive)	> 100 µM (inactive)	> 100 µM (inactive)	> 100 µM (inactive)	> 100 µM (inactive)	> 100 µM (inactive)	> 100 µM (inactive)	> 100 µM (inactive)	27.4 µM (inactive)	1.36 µM (inactive)	> 100 µM (inactive)	> 100 µM (inactive)	–	> 100 µM (inactive)	> 100 µM (inactive)	–	–

Reference: ChEMBL document CHEMBL1201862, “PubChem BioAssay data set” (2004)
